The experiment addresses T1, PTH receptor present on SaOS-2 (human osteosarcoma cells) (Homo sapiens, UniProt Q03431).
T1 construct: host or cells: SaOS-2 human osteosarcoma cells (intact, confluent monolayers)
T1 sequence (Q03431 27-593): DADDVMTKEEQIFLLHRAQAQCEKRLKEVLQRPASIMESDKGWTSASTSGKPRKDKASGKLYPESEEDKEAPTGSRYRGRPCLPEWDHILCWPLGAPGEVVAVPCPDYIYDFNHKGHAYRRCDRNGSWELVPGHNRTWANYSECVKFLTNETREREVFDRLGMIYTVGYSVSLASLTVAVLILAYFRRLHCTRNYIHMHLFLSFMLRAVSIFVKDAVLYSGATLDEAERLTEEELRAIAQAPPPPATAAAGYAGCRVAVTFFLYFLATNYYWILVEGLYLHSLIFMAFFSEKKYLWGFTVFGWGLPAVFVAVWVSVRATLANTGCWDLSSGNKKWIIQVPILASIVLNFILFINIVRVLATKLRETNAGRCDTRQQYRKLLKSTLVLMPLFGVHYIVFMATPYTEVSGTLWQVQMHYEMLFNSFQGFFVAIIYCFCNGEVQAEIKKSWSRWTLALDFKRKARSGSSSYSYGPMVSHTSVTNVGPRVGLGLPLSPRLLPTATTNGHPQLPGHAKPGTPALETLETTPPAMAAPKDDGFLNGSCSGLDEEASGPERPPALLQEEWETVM
Briefly: Binding to PTH receptor on SaOS-2 cells (competition with mono-125I-[Nle8,18,Tyr34(3-125I)]bPTH(1-34)NH2). To be noted: Table I, 2 hrs at room temperature, read-out: Kd (half maximal inhibition of binding of mono-125I-[Nle8,18, Tyr34(3-125I)]bPTH(1-34)NH2). Summed up: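 Confluent SaOS-2 cells in 5% FBS RPMI were incubated 2 h at room temperature with 10×10^4 cpm mono-125I-[Nle8,18,Tyr34(3-125I)]bPTH(1-34)NH2 plus competing peptide at 10^−11 to 10^−4 M. After washing, cell-bound radioactivity was counted; Kd taken as half-maximal inhibition of tracer binding.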

Three molecules from patent US7632811B2, “Analogs of parathyroid hormone” (Societe de Conseils de Recherches et D'Applications …, priority 1995, dated 2009) can be followed below.

Non-standard residues stand in square brackets, D forms with d. Residues, ends and D or L forms follow the SMILES beside them. hArg = N=C(N)NCCCC[C@H](N)C(=O)O; Cha = N[C@@H](CC1CCCCC1)C(=O)O; Nle = CCCC[C@H](N)C(=O)O

With `CCCC[C@H](NC(=O)[C@H](CO)NC(=O)[C@H](CC(N)=O)NC(=O)[C@H](CC(C)C)NC(=O)[C@H](Cc1c[nH]cn1)NC(=O)[C@H](CCCCN)NC(=O)CNC(=O)[C@H](CC(C)C)NC(=O)[C@H](CC(N)=O)NC(=O)[C@H](Cc1c[nH]cn1)NC(=O)[C@H](CCCC)NC(=O)[C@H](CC(C)C)NC(=O)[C@H](CCC(N)=O)NC(=O)[C@@H](NC(=O)[C@H](CCC(=O)O)NC(=O)[C@H](CO)NC(=O)[C@@H](NC(=O)[C@@H](N)CO)C(C)C)[C@@H](C)CC)C(=O)N[C@@H](CCC(=O)O)C(=O)N[C@@H](CCCNC(=N)N)C(=O)N[C@H](C(=O)N[C@@H](CCC(=O)O)C(=O)N[C@@H](Cc1c[nH]c2ccccc12)C(=O)N[C@@H](CC(C)C)C(=O)N[C@@H](CCCNC(=N)N)C(=O)N[C@@H](CCCCN)C(=O)N[C@@H](CC1CCCCC1)C(=O)N[C@@H](CC(C)C)C(=O)N[C@@H](CCC(N)=O)C(=O)N[C@@H](CC(=O)O)C(=O)N[C@H](C(=O)N[C@@H](Cc1c[nH]cn1)C(=O)N[C@@H](CC(N)=O)C(=O)N[C@@H](Cc1ccccc1)C(N)=O)C(C)C)C(C)C` [[Nle^8,18, Cha^27]hPTH(1-34)NH2] (H-SVSEIQL[Nle]HNLGKHLNS[Nle]ERVEWLRK[Cha]LQDVHNF-NH2), the Kd amounted to 50 nM. As to `CCCC[C@H](NC(=O)[C@H](CC(=O)O)NC(=O)[C@H](CCC(N)=O)NC(=O)[C@H](CC(C)C)NC(=O)[C@H](CCCCN)NC(=O)[C@H](CCCCN)NC(=O)[C@H](CCCNC(=N)N)NC(=O)[C@H](CC(C)C)NC(=O)[C@H](Cc1c[nH]c2ccccc12)NC(=O)[C@H](CCC(=O)O)NC(=O)[C@@H](NC(=O)[C@H](CCCNC(=N)N)NC(=O)[C@H](CCC(=O)O)NC(=O)[C@H](CCSC)NC(=O)[C@H](CO)NC(=O)[C@H](CC(N)=O)NC(=O)[C@H](CC(C)C)NC(=O)[C@H](Cc1c[nH]cn1)NC(=O)[C@H](CCCCN)NC(=O)CNC(=O)[C@H](CC(C)C)NC(=O)[C@H](CC(N)=O)NC(=O)[C@H](Cc1c[nH]cn1)NC(=O)[C@H](CCSC)NC(=O)[C@H](CC(C)C)NC(=O)[C@H](CCC(N)=O)NC(=O)[C@@H](NC(=O)[C@H](CCC(=O)O)NC(=O)[C@H](CO)NC(=O)[C@@H](NC(=O)[C@@H](N)CO)C(C)C)[C@@H](C)CC)C(C)C)C(=O)N[C@@H](Cc1c[nH]cn1)C(=O)N[C@@H](CC(N)=O)C(=O)N[C@@H](Cc1ccccc1)C(N)=O` [[Nle^31]hPTH(1-34)NH2] (H-SVSEIQLMHNLGKHLNSMERVEWLRKKLQD[Nle]HNF-NH2), the Kd came out at 4 nM. On to `CC[C@H](C)[C@H](NC(=O)[C@H](CCC(=O)O)NC(=O)[C@H](CO)NC(=O)[C@@H](NC(=O)[C@@H](N)CO)C(C)C)C(=O)N[C@@H](CCC(N)=O)C(=O)N[C@@H](CC(C)C)C(=O)N[C@@H](CCSC)C(=O)N[C@@H](Cc1c[nH]cn1)C(=O)N[C@@H](CC(N)=O)C(=O)N[C@@H](CC(C)C)C(=O)NCC(=O)N[C@@H](CCCCN)C(=O)N[C@@H](Cc1c[nH]cn1)C(=O)N[C@@H](CC(C)C)C(=O)N[C@@H](CC(N)=O)C(=O)N[C@@H](CO)C(=O)N[C@@H](CCSC)C(=O)N[C@@H](CCC(=O)O)C(=O)N[C@@H](CCCNC(=N)N)C(=O)N[C@H](C(=O)N[C@@H](CCC(=O)O)C(=O)N[C@@H](Cc1c[nH]c2ccccc12)C(=O)N[C@@H](CC(C)C)C(=O)N[C@@H](CCCNC(=N)N)C(=O)N[C@@H](CCCCN)C(=O)N[C@@H](CCCCNC(=N)N)C(=O)N[C@@H](CC(C)C)C(=O)N[C@@H](CCC(N)=O)C(=O)N[C@@H](CC(=O)O)C(=O)N[C@H](C(=O)N[C@@H](Cc1c[nH]cn1)C(=O)N[C@@H](CC(N)=O)C(=O)N[C@@H](Cc1ccccc1)C(N)=O)C(C)C)C(C)C` [[hArg^27]hPTH(1-34)NH2] (H-SVSEIQLMHNLGKHLNSMERVEWLRK[hArg]LQDVHNF-NH2), for which the Kd came to 7 nM.
